Assay results: publication PMC3907359, “Investigation of Acetylcholine Receptor Diversity in a Nematode Parasite Leads to Characterization of Tribendimidine- and Derquantel-Sensitive nAChRs” (PLoS Pathogens, 2014)

Experiments:
Format in all cases: cell-based
Ode(29-63-8), ACh-nAChR [1] = molecular target: T1, Ode(29-63-8), ACh-nAChR (Oesophagostomum dentatum, UniProt E5KIX9+L7MMZ7+V5J2B2); assay: voltage clamp, oocytes; single concentration current; settings: agonist, 30 µM
T1 construct: full-length cDNAs (UNC-29 497 aa, UNC-63 507 aa, ACR-8 538 aa), pTB-207, cRNA 1:1:1 in Xenopus laevis oocytes; heteropentamer, stoichiometry undetermined; with H. contortus chaperones RIC-3, UNC-50, UNC-74
T1 sequence (V5J2B2 21-497): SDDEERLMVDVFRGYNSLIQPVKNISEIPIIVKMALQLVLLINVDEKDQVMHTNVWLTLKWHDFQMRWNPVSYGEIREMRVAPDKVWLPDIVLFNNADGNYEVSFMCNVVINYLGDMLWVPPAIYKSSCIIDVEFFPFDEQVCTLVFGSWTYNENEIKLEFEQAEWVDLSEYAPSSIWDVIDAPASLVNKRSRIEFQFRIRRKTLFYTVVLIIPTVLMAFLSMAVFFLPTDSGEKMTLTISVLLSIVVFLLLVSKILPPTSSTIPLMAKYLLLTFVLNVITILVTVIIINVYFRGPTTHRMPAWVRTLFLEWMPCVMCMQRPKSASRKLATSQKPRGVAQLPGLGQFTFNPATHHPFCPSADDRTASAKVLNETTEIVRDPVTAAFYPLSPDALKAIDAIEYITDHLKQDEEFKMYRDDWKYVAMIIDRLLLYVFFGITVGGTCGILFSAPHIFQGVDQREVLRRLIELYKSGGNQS
T1 sequence (E5KIX9 22-507): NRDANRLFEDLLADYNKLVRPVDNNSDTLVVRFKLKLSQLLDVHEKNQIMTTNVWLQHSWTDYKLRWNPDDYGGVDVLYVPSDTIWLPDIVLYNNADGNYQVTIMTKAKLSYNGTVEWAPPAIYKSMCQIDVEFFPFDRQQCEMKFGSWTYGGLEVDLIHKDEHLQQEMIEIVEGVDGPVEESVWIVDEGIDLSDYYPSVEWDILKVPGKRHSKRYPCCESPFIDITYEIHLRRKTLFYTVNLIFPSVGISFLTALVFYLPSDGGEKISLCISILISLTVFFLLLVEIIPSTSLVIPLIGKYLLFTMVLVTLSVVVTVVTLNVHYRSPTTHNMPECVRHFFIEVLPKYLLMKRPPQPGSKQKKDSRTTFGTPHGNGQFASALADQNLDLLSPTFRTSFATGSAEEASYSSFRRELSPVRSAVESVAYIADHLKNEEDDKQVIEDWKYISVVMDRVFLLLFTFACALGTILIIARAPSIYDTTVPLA
T1 sequence (L7MMZ7 21-538): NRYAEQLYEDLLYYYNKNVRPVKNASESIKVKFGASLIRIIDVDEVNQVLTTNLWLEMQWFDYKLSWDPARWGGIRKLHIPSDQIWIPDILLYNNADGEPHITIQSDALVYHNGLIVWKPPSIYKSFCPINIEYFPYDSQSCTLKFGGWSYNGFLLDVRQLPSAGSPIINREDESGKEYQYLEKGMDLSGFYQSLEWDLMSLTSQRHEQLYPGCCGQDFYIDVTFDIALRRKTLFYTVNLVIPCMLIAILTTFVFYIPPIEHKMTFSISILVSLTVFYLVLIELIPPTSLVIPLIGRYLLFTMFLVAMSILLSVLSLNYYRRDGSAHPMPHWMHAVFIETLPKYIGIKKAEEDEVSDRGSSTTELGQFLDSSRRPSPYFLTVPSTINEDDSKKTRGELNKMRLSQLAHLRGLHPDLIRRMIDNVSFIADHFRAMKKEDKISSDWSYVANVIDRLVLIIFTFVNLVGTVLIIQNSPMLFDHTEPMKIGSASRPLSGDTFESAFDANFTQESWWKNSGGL

[2] = molecular target: T2, Ode(29-63-8-38), Lev-nAChR (Oesophagostomum dentatum, UniProt E5KIX9+L7MMZ7+V5J2B2+V5J336); assay: two-electrode voltage clamp, Xenopus oocytes, agonist dose-response
T2 construct: full-length cDNAs (UNC-29 497 aa, UNC-63 507 aa, ACR-8 538 aa, UNC-38 507 aa), pTB-207, cRNA 1:1:1:1 in Xenopus laevis oocytes; heteropentamer, stoichiometry undetermined; with H. contortus chaperones RIC-3, UNC-50, UNC-74
Excerpt: two-electrode voltage clamp, Xenopus oocytes, agonist dose-response on Ode(29-63-8-38), Lev-nAChR

Ode(29-63-8), ACh-nAChR [3] = molecular target: T1, Ode(29-63-8), ACh-nAChR; assay: as above
Excerpt: two-electrode voltage clamp, Xenopus oocytes, agonist dose-response on Ode(29-63-8), ACh-nAChR

T2 sequence (V5J336 21-507, one chain of several): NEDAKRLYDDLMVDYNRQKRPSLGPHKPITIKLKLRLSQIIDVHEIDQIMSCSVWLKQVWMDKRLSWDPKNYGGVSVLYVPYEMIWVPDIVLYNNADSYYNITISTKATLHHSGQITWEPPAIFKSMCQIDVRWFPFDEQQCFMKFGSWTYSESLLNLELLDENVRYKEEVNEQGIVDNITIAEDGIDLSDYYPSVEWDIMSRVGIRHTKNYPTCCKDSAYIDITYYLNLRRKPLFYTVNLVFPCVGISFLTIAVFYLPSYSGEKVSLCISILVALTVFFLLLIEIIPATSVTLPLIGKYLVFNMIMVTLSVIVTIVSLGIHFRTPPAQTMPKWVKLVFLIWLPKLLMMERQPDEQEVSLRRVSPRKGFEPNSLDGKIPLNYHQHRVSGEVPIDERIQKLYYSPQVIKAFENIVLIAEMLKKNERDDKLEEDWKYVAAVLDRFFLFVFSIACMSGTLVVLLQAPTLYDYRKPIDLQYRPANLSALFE

SMILES	voltage clamp, oocytes; single concentration current (Ode(29-63-8), ACh-nAChR [1])	EC50 [2] [µM]	EC50 (Ode(29-63-8), ACh-nAChR [3]) [µM]
C[N+](C)(CCOc1ccccc1)Cc1ccccc1 [bephenium]	responses to all the agonists we tested, including bephenium and thenium		
CC(=O)OCC[N+](C)(C)C [acetylcholine]		4.2 ± 0.2	3.5 ± 0.2
